This is an account of results in patent US20190211020A1 (Agency for Science, Technology and Research, priority 2012, published 2019).

The test relates to eIF4E Ser209 phosphorylation in Hela cells. Put plainly: MNK cell-based assay (AlphaScreen SureFire, eIF4E Ser209 phosphorylation). The following applies: Homo sapiens; eIF4E Ser209 phosphorylation, Hela cells, 2 hours; read-out: IC50 Hela. From the text: It has been reported that Ser209 of eIF4E is solely phosphorylated by the MNK enzymes. The ability of compounds to inhibit this process in Hela cells was investigated using the AlphaScreen SureFire® assay platform from Perkin Elmer (Waltham, Mass.). eIF4E phosphorylated on Ser209 is recognized by two antibodies, the first which is fused to a streptavidin coated donor bead binds to an epitope away from Ser209, the second which is fused to a protein A conjugated acceptor bead binds to phosphorylated Ser209. The phosphorylation of eIF4E on Ser209 brings the two antibodies into close proximity and when excited by a laser a singlet oxygen is released by the donor bead which excites the acceptor bead resulting in the emission of light. This enables the monitoring of eIF4E Ser209 phosphorylation and its inhibition in a cellular context.
Hela cells were seeded into microtitre plates (30,000 cells per well) in 100 μl of culture medium and incubated at 37° C. for 24 hours. The media was then removed by aspiration and the cells resuspended in 50 μl of serum free medium containing the test compound and incubated at 37° C. for 2 hours. The culture medium was again removed by aspiration and the cells resuspended in lysis buffer (provided in Perkin Elmer SureFire® Assay Kit). After agitation at 350 rpm for 20 minutes at 22° C., 4 μl was transferred to a 384 well OptiPlate™ (Perkin Elmer, Waltham, Mass.). To each well was added 5 μl of acceptor mix; the plate was sealed and agitated gently at 22° C. for 2 hours. Then, in subdued light, 2 μl of donor mix was added to each well, the plate was sealed, wrapped in aluminum foil and agitated gently at 22° C. for 2 hours. Emission was measured using the EnVision® plate reader (Perkin Elmer, Waltham, Mass.).
Inhibition constants (IC50) were determined by plotting AlphaScreen signal versus log compound concentration and fitting with a non-linear regression algorithm using GraphPad Prism (GraphPad Software Inc.).
For orientation: Alpha assays give light when donor and acceptor beads are brought close together.
Broadly, the IC50 is the concentration that inhibits the measured activity by half. With `CN(C)C1CCN(C(=O)c2ccc(-c3ccc4ncc(-c5ccc(C#N)cc5)n4n3)cc2)CC1` [Example 63], the IC50 is under 1 µM.

In the case of `N#Cc1ccc(-c2cnc3ccc(-c4ccc(C(=O)N5CCCOCC5)cc4)nn23)cc1` [Example 64, 4-(6-(4-(1,4-oxazepane-4-carbonyl)phenyl)imidazo[1,2-b]pyridazin-3-yl)benzonitrile], the IC50 is under 1 µM.

Regarding `N#Cc1ccc(-c2cnc3ccc(-c4ccc(C(=O)N5CCNCC5)cc4)nn23)cc1` [Example 65, 4-(6-(4-(piperazine-1-carbonyl)phenyl)imidazo [1,2-b]pyridazin-3-yl)benzonitrile], the half-inhibitory concentration (IC50) is under 1 µM.

Turning to `CCC1(NC(C)=O)CCN(C(=O)c2ccc(-c3ccc4ncc(-c5ccc(C#N)cc5)n4n3)cc2)CC1` [Example 66, N-(1-(4-(3-(4-cyanophenyl)imidazo[1,2-b]pyridazin-6-yl)benzoyl)-4-ethylpiperidin-4-yl)acetamide], the IC50 is under 1 µM.

For the compound `N#Cc1ccc(-c2cnc3ccc(-c4ccc(C(=O)N5CCNC(=O)C5)cc4)nn23)cc1` [Example 68, 4-(6-(4-(3-oxopiperazine-1-carbonyl)phenyl)imidazo [1,2-b]pyridazin-3-yl)benzonitrile], the IC50 was under 1 µM.

Regarding `CN1CCN(C(=O)c2ccc(-c3ccc4ncc(-c5ccc(C#N)cc5)n4n3)cc2)CC1=O` [Example 69, 4-(6-(4-(4-methyl-3-oxopiperazine-1-carbonyl)phenyl)imidazo[1,2-b]pyridazin-3-yl)benzonitrile], the half-inhibitory concentration (IC50) is under 1 µM.

On to `CN1CCN(C2CCN(C(=O)c3ccc(-c4ccc5ncc(-c6ccc(C#N)cc6)n5n4)cc3)CC2)CC1` [Example 70, 4-(6-(4-(4-(4-methylpiperazin-1-yl)piperidine-1-carbonyl)phenyl)imidazo [1,2-b]pyridazin-3-yl)benzonitrile], for which the concentration for half-maximal inhibition (IC50) was under 1 µM.

On to `N#Cc1ccc(-c2cnc3ccc(-c4ccc(C(=O)N5CCC6(CCCCN6)CC5)cc4)nn23)cc1` [Example 71, 4-(6-(4-(1,9-diazaspiro[5.5]undecane-9-carbonyl)phenyl)imidazo [1,2-b]pyridazin-3-yl)benzonitrile], for which the IC50 is under 1 µM.

For the compound `CN1CCN(C(=O)c2ccc(-c3ccc4ncc(-c5ccc(C#N)cc5)n4n3)cc2Cl)CC1` [Example 72, 4-(6-(3-chloro-4-(4-methylpiperazine-1-carbonyl)phenyl)imidazo[1,2-b]pyridazin-3-yl)benzonitrile], the IC50 is under 1 µM.

In the case of `CN1CCN(C(=O)c2ccc(-c3ccc4ncc(-c5ccc(C#N)cc5)n4n3)cc2F)CC1` [Example 73, 4-(6-(3-fluoro-4-(4-methylpiperazine-1-carbonyl)phenyl)imidazo[1,2-b]pyridazin-3-yl)benzonitrile], the half-inhibitory concentration (IC50) is under 1 µM.

Regarding `Cc1cc(-c2ccc3ncc(-c4ccc(C#N)cc4)n3n2)ccc1C(=O)N1CCN(C)CC1` [Example 74, 4-(6-(3-methyl-4-(4-methylpiperazine-1-carbonyl)phenyl)imidazo[1,2-b]pyridazin-3-yl)benzonitrile], the IC50 is under 1 µM.

Take `COc1cc(C(=O)N2CCN(C)CC2)ccc1-c1ccc2ncc(-c3ccc(C#N)cc3)n2n1` [Example 78, 4-(6-(2-methoxy-4-(4-methylpiperazine-1-carbonyl)phenyl)imidazo[1,2-b]pyridazin-3-yl)benzonitrile]: the IC50 is under 1 µM.

Take `CN1CCN(C(=O)c2ccc(-c3ccc4ncc(-c5ccc(C#N)cc5)n4n3)cc2[N+](=O)[O-])CC1` [Example 79, 4-(6-(4-(4-methylpiperazine-1-carbonyl)-3-nitrophenyl)imidazo[1,2-b]pyridazin-3-yl)benzonitrile]: the half-inhibitory concentration (IC50) was under 1 µM.

`CC(=O)Nc1cc(-c2ccc3ncc(-c4ccc(C#N)cc4)n3n2)ccc1C(=O)N1CCC(N(C)C)CC1` [Example 81, N-(5-(3-(4-cyanophenyl)imidazo[1,2-b]pyridazin-6-yl)-2-(4-(dimethylamino)piperidine-1-carbonyl)phenyl)acetamide]: the half-inhibitory concentration (IC50) was under 1 µM.

Turning to `CN1CCN(C(=O)c2ccc(-c3ccc4ncc(-c5ccc6c(c5)CC(=O)N6)n4n3)cc2)CC1` [Example 85, 5-(6-(4-(4-methylpiperazine-1-carbonyl)phenyl)imidazo [1,2-b]pyridazin-3-yl)indolin-2-one], the IC50 was under 1 µM.

For the compound `CN1CCN(C(=O)c2ccc(-c3ccc4ncc(-c5ccc6[nH]ncc6c5)n4n3)cc2)CC1` [Example 86, (4-(3-(1H-indazol-5-yl)imidazo[1,2-b]pyridazin-6-yl)phenyl)(4-methylpiperazin-1-yl)methanone], the half-inhibitory concentration (IC50) was under 1 µM.

Consider `CN1CCN(C(=O)c2ccc(-c3ccc4ncc(-c5ccc6[nH]cnc6c5)n4n3)cc2)CC1` [Example 87, (4-(3-(1H-benzo[d]imidazol-5-yl)imidazo[1,2-b]pyridazin-6-yl)phenyl)(4-methylpiperazin-1-yl)methanone], for which the concentration for half-maximal inhibition (IC50) was under 1 µM.

As to `CN1CCN(C2CCN(C(=O)c3ccc(-c4ccc5ncc(-c6ccc7c(c6)CC(=O)N7)n5n4)cc3)CC2)CC1` [Example 89, 5-(6-(4-(4-(4-methylpiperazin-1-yl)piperidine-1-carbonyl)phenyl)imidazo[1,2-b]pyridazin-3-yl)indolin-2-one], the IC50 is under 1 µM.

For `O=C1Cc2cc(-c3cnc4ccc(-c5ccc(C(=O)N6CCC(N7CCOCC7)CC6)cc5)nn34)ccc2N1` [Example 94, 5-(6-(4-(4-morpholinopiperidine-1-carbonyl)phenyl)imidazo[1,2-b]pyridazin-3-yl)indolin-2-one], the IC50 was under 1 µM.

Consider `CN1CCN(C(=O)c2ccc(-c3ccc4ncc(-c5ccc(C#N)cc5)n4c3)cc2)CC1` [Example 95, 4-(6-(4-(4-Methylpiperazine-1-carbonyl)phenyl)imidazo[1,2-a]pyridin-3-yl)benzonitrile], for which the IC50 is under 1 µM.

As for `N#Cc1ccc(-c2cnc3ccc(-c4ccc(C(=O)N5CCCOCC5)cc4)cn23)cc1` [Example 97, 4-(6-(4-(1,4-oxazepane-4-carbonyl)phenyl)imidazo [1,2-a]pyridin-3-yl)benzonitrile], the IC50 is under 1 µM.

In the case of `CCN1CCN(C(=O)c2ccc(-c3ccc4ncc(-c5ccc(C#N)cc5)n4c3)cc2)CC1` [Example 98, 4-(6-(4-(4-ethylpiperazine-1-carbonyl)phenyl)imidazo [1,2-a]pyridin-3-yl)benzonitrile], the IC50 is under 1 µM.

As to `CC(=O)NC1(C)CCN(C(=O)c2ccc(-c3ccc4ncc(-c5ccc(C#N)cc5)n4c3)cc2)CC1` [Example 99, N-(1-(4-(3-(4-cyanophenyl)imidazo[1,2-a]pyridin-6-yl)benzoyl)-4-methylpiperidin-4-yl)acetamide], the half-inhibitory concentration (IC50) is under 1 µM.

Turning to `CCN(CC)C1(C)CCN(C(=O)c2ccc(-c3ccc4ncc(-c5ccc(C#N)cc5)n4c3)cc2)CC1` [Example 100, 4-(6-(4-(4-(diethylamino)-4-methylpiperidine-1-carbonyl)phenyl)imidazo[1,2-a]pyridin-3-yl)benzonitrile], the IC50 was under 1 µM.

As for `CN(CC(=O)N1CCOCC1)C(=O)c1ccc(-c2ccc3ncc(-c4ccc(C#N)cc4)n3c2)cc1` [Example 101, 4-(3-(4-cyanophenyl)imidazo[1,2-a]pyridin-6-yl)-N-methyl-N-(2-morpholino-2-oxoethyl)benzamide], the half-maximal inhibitory concentration (IC50) is under 1 µM.

As to `N#Cc1ccc(-c2cnc3ccc(-c4ccc(C(=O)N5CCNC(=O)C5)cc4)cn23)cc1` [Example 102, 4-(6-(4-(3-oxopiperazine-1-carbonyl)phenyl)imidazo[1,2-a]pyridin-3-yl)benzonitrile], the IC50 was under 1 µM.

For the compound `CN1CCCN(C(=O)c2ccc(-c3ccc4ncc(-c5ccc(C#N)cc5)n4c3)cc2)CC1` [Example 103, 4-(6-(4-(4-methyl-1,4-diazepane-1-carbonyl)phenyl)imidazo[1,2-a]pyridin-3-yl)benzonitrile], the IC50 was under 1 µM.

As to `CN1CCC(C2CCN(C(=O)c3ccc(-c4ccc5ncc(-c6ccc(C#N)cc6)n5c4)cc3)CC2)CC1` [Example 105, 4-(6-(4-(1′-methyl-4,4′-bipiperidine-1-carbonyl)phenyl)imidazo[1,2-a]pyridin-3-yl)benzonitrile], the IC50 is under 1 µM.

Take `CC1(O)CCN(C(=O)c2ccc(-c3ccc4ncc(-c5ccc(C#N)cc5)n4c3)cc2)CC1` [Example 106, 4-(6-(4-(4-hydroxy-4-methylpiperidine-1-carbonyl)phenyl)imidazo[1,2-a]pyridin-3-yl)benzonitrile]: the IC50 was under 1 µM.

As for `N#Cc1ccc(-c2cnc3ccc(-c4ccc(C(=O)N5CCCNCC5)cc4)cn23)cc1` [Example 107, 4-(6-(4-(1,4-diazepane-1-carbonyl)phenyl)imidazo [1,2-a]pyridin-3-yl)benzonitrile], the IC50 was under 1 µM.

`N#Cc1ccc(-c2cnc3ccc(-c4ccc(C(=O)N5CCC(N)CC5)cc4)cn23)cc1` [Example 109, 4-(6-(4-(4-aminopiperidine-1-carbonyl)phenyl)imidazo[1,2-a]pyridin-3-yl)benzonitrile]: the IC50 was under 1 µM.
